Common to all, as to type: biochemical
For assay [1], the target named is T1, JAK1 (Homo sapiens, UniProt P23458).
T1 construct: JAK1 (aa 850-1154) and TYK2 (aa 871-1187) are expressed with an N-terminally fused GST-tag; GST (N); purchased Carna Biosciences, Inc; host or cells: baculovirus expression system
The assay can be described thus: JAK1 kinase assay (HTRF, inhibition of phosphorylation of a synthetic peptide). To be noted: catalytic domain aa 850-1154, GST-tag; 7 μM ATP (Km); read-out: JAK1 kinase inhibitory activity (EC50). In a few lines: (§1)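 Baculovirus-expressed human catalytic domains (GST-JAK1, GST-TYK2, His-JAK2, His-JAK3) phosphorylated 1 μM TK substrate-biotin at ATP Km (JAK1 7 μM, JAK2 4 μM, JAK3 2 μM, TYK2 13 μM) in pH 7.0 Hepes for 20-30 min at RT, 0.75% DMSO. EDTA stop, then overnight streptavidin-XL665/cryptate-antibody detection and HTRF read.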
(TR-FRET usually uses a lanthanide donor and a delayed reading to cut background.)

Assay [2] concerns the target T2, JAK3 (Homo sapiens, UniProt P52333).
T2 construct: All four purified enzymes contain only the catalytic domain; His (N); purchased Carna Biosciences, Inc; host or cells: baculovirus expression system
The experiment in a line: JAK3 kinase assay (HTRF, inhibition of phosphorylation of a synthetic peptide). To be noted: catalytic domain, His-tag; 2 μM ATP (Km); read-out: JAK3 kinase inhibitory activity (EC50). A digest of the protocol: as §1

In assay [3] the target is T3, JAK2 (Homo sapiens, UniProt O60674).
T3 construct: All four purified enzymes contain only the catalytic domain; His (N); purchased Carna Biosciences, Inc; host or cells: baculovirus expression system
T3 sequence (O60674 849-1124 limits assumed): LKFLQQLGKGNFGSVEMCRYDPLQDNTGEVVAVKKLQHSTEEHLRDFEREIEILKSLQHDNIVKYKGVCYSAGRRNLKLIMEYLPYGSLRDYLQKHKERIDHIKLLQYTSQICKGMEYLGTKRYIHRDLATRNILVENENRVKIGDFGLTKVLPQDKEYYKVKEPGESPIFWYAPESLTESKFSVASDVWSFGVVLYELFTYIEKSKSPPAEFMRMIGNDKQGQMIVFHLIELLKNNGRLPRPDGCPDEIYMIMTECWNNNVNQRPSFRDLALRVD
The experiment in a line: JAK2 kinase assay (HTRF, inhibition of phosphorylation of a synthetic peptide). The conditions noted are these: catalytic domain, His-tag; 4 μM ATP (Km); read-out: JAK2 kinase inhibitory activity (EC50). A digest of the protocol: as §1

T2 sequence (P52333 822-1111 limits assumed): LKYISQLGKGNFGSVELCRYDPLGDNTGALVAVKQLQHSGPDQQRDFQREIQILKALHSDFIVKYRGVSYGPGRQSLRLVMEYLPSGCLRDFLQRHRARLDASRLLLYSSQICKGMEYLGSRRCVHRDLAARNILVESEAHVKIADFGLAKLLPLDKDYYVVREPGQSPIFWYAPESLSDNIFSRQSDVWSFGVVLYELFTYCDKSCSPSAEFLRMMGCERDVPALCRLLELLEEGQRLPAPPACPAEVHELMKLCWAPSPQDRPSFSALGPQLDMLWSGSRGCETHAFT
T1 sequence (P23458 850-1154): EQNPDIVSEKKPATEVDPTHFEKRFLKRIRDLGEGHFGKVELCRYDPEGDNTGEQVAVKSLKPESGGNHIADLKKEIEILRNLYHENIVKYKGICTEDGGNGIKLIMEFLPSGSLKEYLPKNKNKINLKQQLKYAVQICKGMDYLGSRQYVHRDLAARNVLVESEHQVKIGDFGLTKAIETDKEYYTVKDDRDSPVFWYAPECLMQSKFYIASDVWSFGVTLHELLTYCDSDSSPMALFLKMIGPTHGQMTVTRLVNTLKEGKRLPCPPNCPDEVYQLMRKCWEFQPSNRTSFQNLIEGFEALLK

`O=C(c1n[nH]c(Cl)n1)N1CCCN(c2ncnc3[nH]ccc23)CC12CC2` [Example 232, (5-chloro-1H-1,2,4-triazol-3-yl)-[5-(7H-pyrrolo[2,3-d]pyrimidin-4-yl)-5,9-diazaspiro[2.6]nonan-9-yl]methanone]: the results for the EC50 in assay [1], in assay [2] and in assay [3] were 100 to 1000 nM, 100 to 1000 nM and less than 100 nM, respectively.
For the molecule `O=C(Cc1cnc[nH]1)N1CCN(c2ncnc3[nH]ccc23)CC2(CC2)C1` [Example 89, 2-(1H-imidazol-5-yl)-1-[5-(7H-pyrrolo[2,3-d]pyrimidin-4-yl)-5,8-diazaspiro[2.6]nonan-8-yl]ethanone], the EC50 in assay [1], in assay [2] and in assay [3] was 100 to 1000 nM throughout.
For `Cc1cnc(C(=O)N2CCN(c3ncnc4[nH]ccc34)CC3(CC3)C2)s1` [Example 241, (5-methylthiazol-2-yl)-[5-(7H-pyrrolo[2,3-d]pyrimidin-4-yl)-5,8-diazaspiro[2.6]nonan-8-yl]methanone], the EC50 in assay [1], in assay [2] and in assay [3] was 100 to 1000 nM each time.
In the case of `Cc1[nH]ncc1C(=O)N1CCN(c2ncnc3[nH]ccc23)CC2(CC2)C1` [Example 206, (5-methyl-1H-pyrazol-4-yl)-[5-(7H-pyrrolo[2,3-d]pyrimidin-4-yl)-5,8-diazaspiro[2.6]nonan-8-yl]methanone], the EC50 in assay [1], in assay [2] and in assay [3] was 100 to 1000 nM throughout.
Take `Cc1cc(C(=O)N2CCN(c3ncnc4[nH]ccc34)CC3(CC3)C2)[nH]n1` [Example 148, (5-methyl-1H-pyrazol-3-yl)-[5-(7H-pyrrolo[2,3-d]pyrimidin-4-yl)-5,8-diazaspiro[2.6]nonan-8-yl]methanone]: the figures for the EC50 in assay [1], in assay [2] and in assay [3] were 100 to 1000 nM, more than 1000 nM and 100 to 1000 nM, respectively.
In the case of `O=C(c1ccccc1Cl)N1CCCN(c2ncnc3[nH]ccc23)CC12CC2` [Example 178, (2-chlorophenyl)-[5-(7H-pyrrolo[2,3-d]pyrimidin-4-yl)-5,9-diazaspiro[2.6]nonan-9-yl]methanone], the EC50 in assay [1] was 100 to 1000 nM; in assay [2], more than 1000 nM; in assay [3], 100 to 1000 nM.
As for `O=C(c1cncnc1)N1CCN(c2ncnc3[nH]ccc23)CC2(CC2)C1` [Example 160, pyrimidin-5-yl-[5-(7H-pyrrolo[2,3-d]pyrimidin-4-yl)-5,8-diazaspiro[2.6]nonan-8-yl]methanone], the EC50 in assay [1] is more than 1000 nM; in assay [2], more than 1000 nM; in assay [3] it was 100 to 1000 nM.
Consider `Cc1ncc(CC(=O)N2CCN(c3ncnc4[nH]ccc34)CC3(CC3)C2)s1` [Example 247, 2-(2-methylthiazol-5-yl)-1-[5-(7H-pyrrolo[2,3-d]pyrimidin-4-yl)-5,8-diazaspiro[2.6]nonan-8-yl]ethanone], for which the EC50 in assay [1] is 100 to 1000 nM; in assay [2] it was more than 1000 nM; in assay [3], less than 100 nM.
In the same order, the values of `Cc1cc(C(=O)N2CCN(c3ncnc4[nH]ccc34)CC3(CC3)C2)ccn1` [Example 171, (2-methyl-4-pyridyl)-[5-(7H-pyrrolo[2,3-d]pyrimidin-4-yl)-5,8-diazaspiro[2.6]nonan-8-yl]methanone] are 100 to 1000 nM, more than 1000 nM and more than 1000 nM.
For `Cc1cccc(CC(=O)N2CCN(c3ncnc4[nH]ccc34)CC3(CC3)C2)c1` [Example 262, 2-(m-tolyl)-1-[5-(7H-pyrrolo[2,3-d]pyrimidin-4-yl)-5,8-diazaspiro[2.6]nonan-8-yl]ethanone], the EC50 is 100 to 1000 nM in assay [1], more than 1000 nM in assay [2] and less than 100 nM in assay [3].
In the same order, the values of `O=C(c1cscn1)N1CCN(c2ncnc3[nH]ccc23)CC2(CC2)C1` [Example 216, [5-(7H-pyrrolo[2,3-d]pyrimidin-4-yl)-5,8-diazaspiro[2.6]nonan-8-yl]-thiazol-4-yl-methanone] are 100 to 1000 nM, 100 to 1000 nM and 100 to 1000 nM.
Take `Cc1n[nH]c(CC(=O)N2CCN(c3ncnc4[nH]ccc34)CC3(CC3)C2)n1` [Example 250, 2-(3-methyl-1H-1,2,4-triazol-5-yl)-1-[5-(7H-pyrrolo[2,3-d]pyrimidin-4-yl)-5,8-diazaspiro[2.6]nonan-8-yl]ethanone]: the EC50 in assay [1], in assay [2] and in assay [3] was 100 to 1000 nM throughout.
With `Cn1cncc1C(=O)N1CCCN(c2ncnc3[nH]ccc23)CC12CC2` [Example 145, (3-methylimidazol-4-yl)-[5-(7H-pyrrolo[2,3-d]pyrimidin-4-yl)-5,9-diazaspiro[2.6]nonan-9-yl]methanone], the EC50 in assay [1] is 100 to 1000 nM; in assay [2], more than 1000 nM; in assay [3], 100 to 1000 nM.
Consider `O=C(Cc1ccccc1Cl)N1CCCN(c2ncnc3[nH]ccc23)CC12CC2` [Example 174, 2-(2-chlorophenyl)-1-[5-(7H-pyrrolo[2,3-d]pyrimidin-4-yl)-5,9-diazaspiro[2.6]nonan-9-yl]ethanone], for which the figures for the 50% effective concentration (EC50) in assay [1], in assay [2] and in assay [3] were 100 to 1000 nM, more than 1000 nM and 100 to 1000 nM, respectively.
Take `O=C(c1ccc(F)cc1)N1CCN(c2ncnc3[nH]ccc23)CC2(CC2)C1` [Example 113, (4-fluorophenyl)-[5-(7H-pyrrolo[2,3-d]pyrimidin-4-yl)-5,8-diazaspiro[2.6]nonan-8-yl]methanone]: the concentration giving a half-maximal response (EC50) in assay [1], in assay [2] and in assay [3] was 100 to 1000 nM each time.
For the molecule `O=C(Cc1ccccc1)N1CCN(c2ncnc3[nH]ccc23)CC2(CC2)C1` [Example 259, 2-phenyl-1-[5-(7H-pyrrolo[2,3-d]pyrimidin-4-yl)-5,8-diazaspiro[2.6]nonan-8-yl]ethanone], the EC50 in assay [1] was 100 to 1000 nM; in assay [2], 100 to 1000 nM; in assay [3] it was less than 100 nM.
On to `O=C1CSC(=O)N1CC(=O)N1CCCN(c2ncnc3[nH]ccc23)CC12CC2` [Example 85, 3-[2-oxo-2-[5-(7H-pyrrolo[2,3-d]pyrimidin-4-yl)-5,9-diazaspiro[2.6]nonan-9-yl]ethyl]thiazolidine-2,4-dione], for which the EC50 in assay [1], in assay [2] and in assay [3] was 100 to 1000 nM each time.
Regarding `O=C(c1ccncn1)N1CCCN(c2ncnc3[nH]ccc23)CC12CC2` [Example 166, pyrimidin-4-yl-[5-(7H-pyrrolo[2,3-d]pyrimidin-4-yl)-5,9-diazaspiro[2.6]nonan-9-yl]methanone], the EC50 is less than 100 nM in assay [1], 100 to 1000 nM in assay [2] and less than 100 nM in assay [3].
For the molecule `CN1CCN(CC(=O)N2CCN(c3ncnc4[nH]ccc34)CC3(CC3)C2)C1=O` [Example 82, 1-methyl-3-[2-oxo-2-[5-(7H-pyrrolo[2,3-d]pyrimidin-4-yl)-5,8-diazaspiro[2.6]nonan-8-yl]ethyl]imidazolidin-2-one], the EC50 in assay [1], in assay [2] and in assay [3] was 100 to 1000 nM in each case.
On to `O=C(c1cnsc1)N1CCN(c2ncnc3[nH]ccc23)CC2(CC2)C1` [Example 210, isothiazol-4-yl-[5-(7H-pyrrolo[2,3-d]pyrimidin-4-yl)-5,8-diazaspiro[2.6]nonan-8-yl]methanone], for which the EC50 in assay [1], in assay [2] and in assay [3] was 100 to 1000 nM throughout.
Take `Cc1noc(C)c1C(=O)N1CCCN(c2ncnc3[nH]ccc23)CC12CC2` [Example 199, (3,5-dimethylisoxazol-4-yl)-[5-(7H-pyrrolo[2,3-d]pyrimidin-4-yl)-5,9-diazaspiro[2.6]nonan-9-yl]methanone]: the 50% effective concentration (EC50) in assay [1], in assay [2] and in assay [3] was more than 1000 nM each time.
In the case of `O=C(c1cncc(F)c1)N1CCN(c2ncnc3[nH]ccc23)CC2(CC2)C1` [Example 213, (5-fluoro-3-pyridyl)-[5-(7H-pyrrolo[2,3-d]pyrimidin-4-yl)-5,8-diazaspiro[2.6]nonan-8-yl]methanone], the EC50 was 100 to 1000 nM in assay [1], more than 1000 nM in assay [2] and 100 to 1000 nM in assay [3].
On to `O=C(c1c[nH]cn1)N1CCN(c2ncnc3[nH]ccc23)CC2(CC2)C1` [Example 133, 1H-imidazol-4-yl-[5-(7H-pyrrolo[2,3-d]pyrimidin-4-yl)-5,8-diazaspiro[2.6]nonan-8-yl]methanone], for which the EC50 in assay [1], in assay [2] and in assay [3] was 100 to 1000 nM each time.
Consider `O=C(c1cc[nH]n1)N1CCN(c2ncnc3[nH]ccc23)CC2(CC2)C1` [Example 182, 1H-pyrazol-3-yl-[5-(7H-pyrrolo[2,3-d]pyrimidin-4-yl)-5,8-diazaspiro[2.6]nonan-8-yl]methanone], for which the 50% effective concentration (EC50) in assay [1], in assay [2] and in assay [3] was 100 to 1000 nM throughout.

As a reminder, the EC50 is the concentration at which the effect is half-maximal.

For the origin of these results see US9586961B2, “Homopiperazine derivatives as protein tyrosine kinase inhibitors and pharmaceutical use thereof” (LEO PHARMA A/S, priority 2010, dated 2017).
